Laboratory results taken from patent US20050234046A1 (Kalypsys, Inc., priority 2004, published 2005).

Experiments:
Assay in all cases: Transient transfection (transactivation) assay in CV-1 cells, GAL4-PPAR chimera, luciferase reporter
Assay type in all cases: cell-based
PPAR alpha = molecular target: T1, PPAR alpha (Homo sapiens, UniProt Q07869)
T1 construct: expressed in transfected cells; host or cells: CV-1 cells
T1 sequence (Q07869 239-466 limits assumed): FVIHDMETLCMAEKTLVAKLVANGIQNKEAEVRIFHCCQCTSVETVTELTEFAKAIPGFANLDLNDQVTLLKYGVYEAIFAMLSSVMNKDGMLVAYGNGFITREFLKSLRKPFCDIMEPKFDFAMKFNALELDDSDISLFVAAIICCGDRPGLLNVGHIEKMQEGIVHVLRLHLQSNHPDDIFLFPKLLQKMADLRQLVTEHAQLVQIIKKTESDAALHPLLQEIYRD
In short: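 GAL4 DNA-binding domain fused to PPAR ligand binding domain, co-transfected into CV-1 cells with a luciferase reporter carrying four or five GAL4 sites. Replated cells in phenol-red free DME with 5% delipidated calf serum were treated with compound or 1% DMSO for 20-24 hours; luciferase read for EC50 and efficacy.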

PPAR delta = molecular target: T2, PPAR delta (Homo sapiens, UniProt Q03181)
T2 construct: expressed in transfected cells; host or cells: CV-1 cells
T2 sequence (Q03181 211-439 limits assumed): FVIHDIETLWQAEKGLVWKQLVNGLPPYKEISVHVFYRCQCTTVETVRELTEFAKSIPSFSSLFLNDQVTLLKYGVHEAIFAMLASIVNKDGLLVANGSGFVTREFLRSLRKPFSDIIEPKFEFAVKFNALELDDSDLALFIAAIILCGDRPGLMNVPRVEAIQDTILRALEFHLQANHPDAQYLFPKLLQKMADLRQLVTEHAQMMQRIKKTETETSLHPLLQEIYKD

PPAR gamma = molecular target: T3, PPAR gamma (Homo sapiens, UniProt P37231)
T3 construct: expressed in transfected cells; host or cells: CV-1 cells
T3 sequence (P37231 238-503 limits assumed): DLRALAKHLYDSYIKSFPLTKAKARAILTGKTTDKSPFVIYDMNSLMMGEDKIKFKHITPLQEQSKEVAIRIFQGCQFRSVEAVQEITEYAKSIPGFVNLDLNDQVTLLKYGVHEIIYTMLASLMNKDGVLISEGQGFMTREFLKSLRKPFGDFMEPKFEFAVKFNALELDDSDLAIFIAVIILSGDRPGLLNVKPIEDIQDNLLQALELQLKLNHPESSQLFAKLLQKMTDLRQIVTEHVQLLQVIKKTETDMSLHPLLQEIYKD
Source text: Compounds may be screened for functional potency in transient transfection assays in CV-1 cells or other cell types for their ability to activate the PPAR subtypes (transactivation assay). A previously established chimeric receptor system was utilized to allow comparison of the relative transcriptional activity of the receptor subtypes on the same synthetic response element and to prevent endogenous receptor activation from complicating the interpretation of results. […] The ligand binding domains for murine and human PPAR-alpha, PPAR-gamma, and PPAR-delta are each fused to the yeast transcription factor GAL4 DNA binding domain. CV-1 cells were transiently transfected with expression vectors for the respective PPAR chimera along with a reporter construct containing four or five copies of the GAL4 DNA binding site driving expression of luciferase. After 8-16 h, the cells are replated into multi-well assay plates and the media is exchanged to phenol-red free DME medium supplemented with 5% delipidated calf serum. 4 hours after replating, cells were treated with either compounds or 1% DMSO for 20-24 hours. Luciferase activity was then assayed with Britelite (Perkin Elmer) following the manufacturer's protocol and measured with either the Perkin Elmer Viewlux or Molecular Devices Acquest Xsee, for example, Kliewer, S. A., et. al. Cell 1995, 83, 813-819). Rosiglitazone is used as a positive control in the hPPAR-γ assay. Wy-14643 and GW7647 is used as a positive control in the hPPAR-α assay. GW501516 is used as the positive control in the hPPAR-δ assay.

Row | SMILES | EC50 (PPAR alpha) | EC50 (PPAR delta) | EC50 (PPAR gamma)
1 | Cc1ccc(S(=O)(=O)N2CCN(c3nc4ccccc4o3)CC2)cc1CC(=O)O [Example 17, [5-(4-Benzoxazol-2-yl-piperazine-1-sulfonyl)-2-methyl-phenyl]-acetic acid] | 5 to 100 µM | < 5 µM | 5 to 100 µM
2 | Cc1cc(CC(=O)O)cc(S(=O)(=O)N2[C@H](C)CN(c3ccc(OC(F)(F)F)cc3)C[C@@H]2C)c1 [Example 110, {3-[2,6-Dimethyl-4-(4-trifluoromethoxy-phenyl)-piperazine-1-sulfonyl]-5-methyl-phenyl}-acetic acid] | 5 to 100 µM | < 5 µM | 5 to 100 µM
3 | Cc1cc(CC(=O)O)cc(S(=O)(=O)N2CCN(c3ncc(C(F)(F)F)cc3Cl)CC2)c1 [Example 22, {5-Methyl-3-[4-(3-chloro-5-trifluoromethyl-pyridin-2-yl)-piperazine-1-sulfonyl]-phenyl)-acetic acid] | 5 to 100 µM | < 5 µM | < 5 µM
4 | Cc1ccc(S(=O)(=O)N2CCN(c3nc4ccccc4s3)CC2)cc1CC(=O)O [Example 18, [5-(4-Benzothiazol-2-yl-piperazine-1-sulfonyl)-2-methyl-phenyl]-acetic acid] | < 5 µM | < 5 µM | < 5 µM
5 | COc1cccc(N2CCN(S(=O)(=O)c3cccc(CC(=O)O)c3)CC2)c1 [Example 137, {3-[4-(3-Methoxy-phenyl)-piperazine-1-sulfonyl]-phenyl}-acetic acid] | > 100 µM | > 100 µM | > 100 µM
6 | COCc1cc(CC(=O)O)cc(S(=O)(=O)N2CCN(c3ccc(C(F)(F)F)cc3)CC2)c1 [Example 85, {3-Methoxymethyl-5-[4-(4-trifluoromethyl-phenyl)-piperazine-1-sulfonyl]-phenyl}-acetic acid] | > 100 µM | 5 to 100 µM | > 100 µM
7 | Cc1ccc(S(=O)(=O)N2CCCN(c3ncccc3C(F)(F)F)CC2)cc1CC(=O)O [Example 12, {2-Methyl-5-[4-(3-trifluoromethyl-pyridin-2-yl)-[1,4]diazepane-1-sulfonyl]-phenyl}-acetic acid] | > 100 µM | 5 to 100 µM | 5 to 100 µM
8 | C[C@@H]1CN(c2ccc(OC(F)(F)F)cc2)C[C@H](C)N1S(=O)(=O)c1ccc(F)c(CC(=O)O)c1F [Example 232, {3-[2,6-Dimethyl-4-(4-trifluoromethoxy-phenyl)-piperazine-1-sulfonyl]-2,6-difluoro-phenyl}-acetic acid] | > 100 µM | < 5 µM | > 100 µM
9 | O=C(O)Cc1cccc(S(=O)(=O)N2CCN(c3ccc([N+](=O)[O-])cc3)CC2)c1 [Example 135, {3-[4-(4-Nitro-phenyl)-piperazine-1-sulfonyl]-phenyl}-acetic acid] | > 100 µM | 5 to 100 µM | > 100 µM
10 | O=C(O)COc1cccc(S(=O)(=O)N2CCN(c3ccc(C(F)(F)F)cc3)CC2)c1 [Example 190, {3-[4-(4-Trifluoromethyl-phenyl)-piperazine-1-sulfonyl]-phenoxy}-acetic acid] | > 100 µM | 5 to 100 µM | > 100 µM
11 | CCc1ccc(N2CCN(S(=O)(=O)c3ccc(C)c(CC(=O)O)c3)CC2)cc1 [Example 30, {5-[4-(4-Ethyl-phenyl)-piperazine-1-sulfonyl]-2-methyl-phenyl}-acetic acid] | 5 to 100 µM | < 5 µM | 5 to 100 µM
12 | Cc1cc(CC(=O)O)cc(S(=O)(=O)N2CCN(c3ccc(Cl)cc3)CC2)c1 [Example 167, {3-[4-(4-Chloro-phenyl)-piperazine-1-sulfonyl]-5-methyl-phenyl}-acetic acid] | > 100 µM | < 5 µM | 5 to 100 µM
13 | C[C@@H]1CN(c2ccc(C(F)(F)F)cn2)C[C@H](C)N1S(=O)(=O)c1ccc(F)c(CC(=O)O)c1F [Example 231, {3-[2,6-Dimethyl-4-(5-trifluoromethyl-pyridin-2-yl)-piperazine-1-sulfonyl]-2,6-difluoro-phenyl}-acetic acid] | > 100 µM | 5 to 100 µM | > 100 µM
14 | O=C(O)Cc1cccc(S(=O)(=O)N2CCN(C(c3ccccc3)c3ccccc3)CC2)c1 [Example 146, [3-(4-Benzhydryl-piperazine-1-sulfonyl)-phenyl]-acetic acid] | > 100 µM | > 100 µM | 5 to 100 µM
15 | C[C@@H]1CN(c2ccc(C(F)(F)F)cn2)C[C@H](C)N1S(=O)(=O)c1cc(CC(=O)O)cc(C(F)(F)F)c1 [Example 204, {3-[2,6-Dimethyl-4-(5-trifluoromethyl-pyridin-2-yl)-piperazine-1-sulfonyl]-5-trifluoromethyl-phenyl}-acetic acid] | > 100 µM | < 5 µM | > 100 µM
16 | Cc1ccc(S(=O)(=O)N2CCN(c3ccc(C(F)(F)F)cn3)CC2)cc1CC(=O)O [Example 182, {2-Methyl-S-[4-(5-trifluoromethyl-pyridin-2-yl)-piperazine-1-sulfonyl]-phenyl}-acetic acid] | 5 to 100 µM | < 5 µM | < 5 µM
17 | Cc1cc(CC(=O)O)cc(S(=O)(=O)N2CCN(c3ccc(F)cc3F)CC2)c1 [Example 170] | > 100 µM | 5 to 100 µM | > 100 µM
18 | O=C(O)COc1cccc(S(=O)(=O)N2CCN(c3ccc(Cl)c(Cl)c3)CC2)c1 [Example 188] | > 100 µM | 5 to 100 µM | > 100 µM
19 | Cc1ccc(S(=O)(=O)N2CCN(c3ccc(Cl)c(Cl)c3)CC2)cc1CC(=O)O [Example 175, {5-[4-(3,4-Dichloro-phenyl)-piperazine-1-sulfonyl]-2-methyl-phenyl}-acetic acid] | 5 to 100 µM | < 5 µM | 5 to 100 µM
20 | Cc1cc(CC(=O)O)cc(S(=O)(=O)N2CCN(c3ccc(C(F)(F)F)cn3)[C@@H](C)[C@H]2C)c1 (mixture of isomers) [Example 106, RS and SR-{3-[2,3-Dimethyl-4-(5-trifluoromethyl-pyridin-2-yl)-piperazine-1-sulfonyl]-5-methyl-phenyl}-acetic acid] | > 100 µM | < 5 µM | > 100 µM
21 | Cc1ccc(S(=O)(=O)N2CCN(c3ccc(C(F)(F)F)cn3)[C@@H](C)C2)cc1CC(=O)O [Example 70, {2-Methyl-5-[(S)-3-methyl-4-(5-trifluoromethyl-pyridin-2-yl)-piperazine-1-sulfonyl]-phenyl}-acetic acid] | < 5 µM | < 5 µM | < 5 µM
22 | Cc1ccc(S(=O)(=O)N2CCN(c3ncc(Br)s3)CC2)cc1CC(=O)O [Example 55, {5-[4-(5-Bromo-thiazol-2-yl)-piperazine-1-sulfonyl]-2-methyl-phenyl}-acetic acid] | 5 to 100 µM | < 5 µM | 5 to 100 µM
23 | O=C(O)Cc1cccc(S(=O)(=O)N2CCN(c3cccc(Cl)c3)CC2)c1 [Example 139, {3-[4-(3-Chloro-phenyl)-piperazine-1-sulfonyl]-phenyl}-acetic acid] | > 100 µM | 5 to 100 µM | 5 to 100 µM
24 | Cc1ccc(S(=O)(=O)N2[C@H](C)CN(c3ccc(C(F)(F)F)c(F)c3)C[C@@H]2C)cc1CC(=O)O [Example 68, {5-[4-(3-Fluoro-4-trifluoromethyl-phenyl)-2,6-dimethyl-piperazine-1-sulfonyl]-2-methyl-phenyl}-acetic acid] | < 5 µM | < 5 µM | 5 to 100 µM
25 | Cc1ccc(S(=O)(=O)N2[C@H](C)CN(c3ccc(C(F)(F)F)c(Cl)c3)C[C@@H]2C)cc1CC(=O)O [Example 107, {5-[4-(3-Chloro-4-trifluoromethyl-phenyl)-2,6-dimethyl-piperazine-1-sulfonyl]-2-methyl-phenyl}-acetic acid] | > 100 µM | < 5 µM | > 100 µM
26 | Cc1ccc(C)c(N2CCN(S(=O)(=O)c3cccc(CC(=O)O)c3)CC2)c1 [Example 131, {3-[4-(2,5-Dimethyl-phenyl)-piperazine-1-sulfonyl]-phenyl}-acetic acid] | > 100 µM | 5 to 100 µM | 5 to 100 µM
27 | O=C(O)Cc1cccc(S(=O)(=O)N2CCC(c3ccc(Cl)cc3)CC2)c1 [Example 184, {3-[4-(4-Chloro-phenyl)-piperidine-1-sulfonyl]-phenyl}-acetic acid] | > 100 µM | 5 to 100 µM | > 100 µM
28 | O=C(O)Cc1cccc(S(=O)(=O)N2CCN(c3ccc(OC(F)(F)F)cc3)CC2)c1 [Example 92, {3-[4-(4-Trifluoromethoxy-phenyl)-piperazine-1-sulfonyl]-phenyl}-acetic acid] | < 5 µM | < 5 µM | > 100 µM
